Measured values from patent publication US20250154141A1 (University of Florida Research Foundation, Incorporated, priority 2021, published 2025).

Key:
[1] = tested on: RS4; 11; experiment: Cell viability assay (MTS) in RS4; 11 cells; assay type: cell-based; conditions: Homo sapiens, RS4-11; Table 2; 48 hr; MTS; read-out: Anti-Cancer Activity IC50 (48 hr) RS4; 11
Method: (§1) Acute lymphoblastic leukemia cells (MOLT-4 and RS4; 11) were incubated with increasing concentrations of Bcl-xL degraders for 48 h. Cell viability was measured by tetrazolium-based MTS assay.

[2] = tested on: MOLT-4; experiment: Cell viability assay (MTS) in MOLT-4 cells; assay type: cell-based; conditions: Homo sapiens, MOLT-4; Table 2; 48 hr; MTS; read-out: Anti-Cancer Activity IC50 (48 hr) MOLT-4
Method: as §1

Cc1ncsc1-c1ccc([C@H](C)NC(=O)[C@@H]2C[C@@H](O)CN2C(=O)[C@@H](NC(=O)CNC(=O)c2ccc(N3CCN(CC4(C)CCC(c5ccc(Cl)cc5)=C(CN5CCN(c6ccc(C(=O)NS(=O)(=O)c7ccc(N[C@H](CCN8CCOCC8)CSc8ccccc8)c(S(=O)(=O)C(F)(F)F)c7)cc6)CC5)C4)CC3)nc2)C(C)(C)C)cc1 (some centres unmarked) [Compound 1]
IC50 [1]: 100 to 500 nM | IC50 [2]: 20 to 100 nM

Cc1ncsc1-c1ccc([C@H](C)NC(=O)[C@@H]2C[C@@H](O)CN2C(=O)[C@@H](NC(=O)CCCNC(=O)c2ccc(N3CCN(CC4(C)CCC(c5ccc(Cl)cc5)=C(CN5CCN(c6ccc(C(=O)NS(=O)(=O)c7ccc(N[C@H](CCN8CCOCC8)CSc8ccccc8)c(S(=O)(=O)C(F)(F)F)c7)cc6)CC5)C4)CC3)nc2)C(C)(C)C)cc1 (some centres unmarked) [Compound 2]
IC50 [1]: 20 to 100 nM | IC50 [2]: 20 to 100 nM

Cc1ncsc1-c1ccc([C@H](C)NC(=O)[C@@H]2C[C@@H](O)CN2C(=O)[C@@H](NC(=O)CCCNC(=O)c2ccc(N3CCN(CC4(C)CCC(c5ccc(Cl)cc5)=C(CN5CCN(c6ccc(C(=O)NS(=O)(=O)c7ccc(N[C@H](CCN8CCOCC8)CSc8ccccc8)c(S(=O)(=O)C(F)(F)F)c7)cc6)CC5)C4)CC3)cn2)C(C)(C)C)cc1 (some centres unmarked) [Compound 4]
IC50 [1]: 20 to 100 nM | IC50 [2]: 20 to 100 nM

Cc1ncsc1-c1ccc([C@H](C)NC(=O)[C@@H]2C[C@@H](O)CN2C(=O)[C@@H](NC(=O)CCCCCNC(=O)c2ccc(N3CCN(CC4(C)CCC(c5ccc(Cl)cc5)=C(CN5CCN(c6ccc(C(=O)NS(=O)(=O)c7ccc(N[C@H](CCN8CCOCC8)CSc8ccccc8)c(S(=O)(=O)C(F)(F)F)c7)cc6)CC5)C4)CC3)cn2)C(C)(C)C)cc1 (some centres unmarked) [Compound 5]
IC50 [1]: 100 to 500 nM | IC50 [2]: 20 to 100 nM

Cc1ncsc1-c1ccc([C@H](C)NC(=O)[C@@H]2C[C@@H](O)CN2C(=O)[C@@H](NC(=O)CCCCCCCNC(=O)c2ccc(N3CCN(CC4(C)CCC(c5ccc(Cl)cc5)=C(CN5CCN(c6ccc(C(=O)NS(=O)(=O)c7ccc(N[C@H](CCN8CCOCC8)CSc8ccccc8)c(S(=O)(=O)C(F)(F)F)c7)cc6)CC5)C4)CC3)cn2)C(C)(C)C)cc1 (some centres unmarked) [Compound 6]
IC50 [1]: 100 to 500 nM | IC50 [2]: 500 to 10000 nM

Cc1ncsc1-c1ccc([C@H](C)NC(=O)[C@@H]2C[C@@H](O)CN2C(=O)[C@@H](NC(=O)CNC(=O)c2ccc(N3CCN(CCN(C)CC4(C)CCC(c5ccc(Cl)cc5)=C(CN5CCN(c6ccc(C(=O)NS(=O)(=O)c7ccc(N[C@H](CCN8CCOCC8)CSc8ccccc8)c(S(=O)(=O)C(F)(F)F)c7)cc6)CC5)C4)CC3)nc2)C(C)(C)C)cc1 (some centres unmarked) [Compound 7]
IC50 [1]: 20 to 100 nM | IC50 [2]: 100 to 500 nM

Cc1ncsc1-c1ccc([C@H](C)NC(=O)[C@@H]2C[C@@H](O)CN2C(=O)[C@@H](NC(=O)CCCNC(=O)c2ccc(N3CCN(CCN(C)CC4(C)CCC(c5ccc(Cl)cc5)=C(CN5CCN(c6ccc(C(=O)NS(=O)(=O)c7ccc(N[C@H](CCN8CCOCC8)CSc8ccccc8)c(S(=O)(=O)C(F)(F)F)c7)cc6)CC5)C4)CC3)nc2)C(C)(C)C)cc1 (some centres unmarked) [Compound 8]
IC50 [1]: 20 to 100 nM | IC50 [2]: 20 to 100 nM

Cc1ncsc1-c1ccc([C@H](C)NC(=O)[C@@H]2C[C@@H](O)CN2C(=O)[C@@H](NC(=O)CCCCCNC(=O)c2ccc(N3CCN(CCN(C)CC4(C)CCC(c5ccc(Cl)cc5)=C(CN5CCN(c6ccc(C(=O)NS(=O)(=O)c7ccc(N[C@H](CCN8CCOCC8)CSc8ccccc8)c(S(=O)(=O)C(F)(F)F)c7)cc6)CC5)C4)CC3)nc2)C(C)(C)C)cc1 (some centres unmarked) [Compound 9]
IC50 [1]: 20 to 100 nM | IC50 [2]: 20 to 100 nM

Cc1ncsc1-c1ccc([C@H](C)NC(=O)[C@@H]2C[C@@H](O)CN2C(=O)[C@@H](NC(=O)CNC(=O)c2ccc(N3CCN(CC4(C)CCC(c5ccc(Cl)cc5)=C(CN5CCN(c6ccc(C(=O)NS(=O)(=O)c7ccc(N[C@H](CCN8CCOCC8)CSc8ccccc8)c(S(=O)(=O)C(F)(F)F)c7)cc6)CC5)C4)CC3)cc2)C(C)(C)C)cc1 (stereo partly drawn) [Compound 10, (2S,4R)-1-((2S)-2-(2-(4-(4-((4′-chloro-4-methyl-6-((4-(4-(((4-(((R)-4-morpholino-1-(phenylthio)butan-2-yl)amino)-3-((trifluoromethyl)sulfonyl)phenyl)sulfonyl)carbamoyl)phenyl)piperazin-1-yl)methyl)-2,3,4,5-tetrahydro-[1,1′-biphenyl]-4-yl)methyl)piperazin-1-yl)benzamido)acetamido)-3,3-dimethylbutanoyl)-4-hydroxy-N—((S)-1-(4-(4-methylthiazol-5-yl)phenyl)ethyl)pyrrolidine-2-carboxamide]
IC50 [1]: 100 to 500 nM | IC50 [2]: 100 to 500 nM

Cc1ncsc1-c1ccc([C@H](C)NC(=O)[C@@H]2C[C@@H](O)CN2C(=O)[C@@H](NC(=O)CCCNC(=O)c2ccc(N3CCN(CC4(C)CCC(c5ccc(Cl)cc5)=C(CN5CCN(c6ccc(C(=O)NS(=O)(=O)c7ccc(N[C@H](CCN8CCOCC8)CSc8ccccc8)c(S(=O)(=O)C(F)(F)F)c7)cc6)CC5)C4)CC3)cc2)C(C)(C)C)cc1 (stereo partly drawn) [Compound 11, (2S,4R)-1-((2S)-2-(4-(4-(4-((4′-chloro-4-methyl-6-((4-(4-(((4-(((R)-4-morpholino-1-(phenylthio)butan-2-yl)amino)-3-((trifluoromethyl)sulfonyl)phenyl)sulfonyl)carbamoyl)phenyl)piperazin-1-yl)methyl)-2,3,4,5-tetrahydro-[1,1′-biphenyl]-4-yl)methyl)piperazin-1-yl)benzamido)butanamido)-3,3-dimethylbutanoyl)-4-hydroxy-N—((S)-1-(4-(4-methylthiazol-5-yl)phenyl)ethyl)pyrrolidine-2-carboxamide]
IC50 [1]: 20 to 100 nM | IC50 [2]: 20 to 100 nM

Cc1ncsc1-c1ccc([C@H](C)NC(=O)[C@@H]2C[C@@H](O)CN2C(=O)[C@@H](NC(=O)CNC(=O)c2ccc(N3CCN(CCN(C)CC4(C)CCC(c5ccc(Cl)cc5)=C(CN5CCN(c6ccc(C(=O)NS(=O)(=O)c7ccc(N[C@H](CCN8CCOCC8)CSc8ccccc8)c(S(=O)(=O)C(F)(F)F)c7)cc6)CC5)C4)CC3)cc2)C(C)(C)C)cc1 (some centres unmarked) [Compound 13]
IC50 [1]: 100 to 500 nM | IC50 [2]: 100 to 500 nM

Cc1ncsc1-c1ccc([C@H](C)NC(=O)[C@@H]2C[C@@H](O)CN2C(=O)[C@@H](NC(=O)CCCNC(=O)c2ccc(N3CCN(CCN(C)CC4(C)CCC(c5ccc(Cl)cc5)=C(CN5CCN(c6ccc(C(=O)NS(=O)(=O)c7ccc(N[C@H](CCN8CCOCC8)CSc8ccccc8)c(S(=O)(=O)C(F)(F)F)c7)cc6)CC5)C4)CC3)cc2)C(C)(C)C)cc1 (some centres unmarked) [Compound 14]
IC50 [1]: 20 to 100 nM | IC50 [2]: 20 to 100 nM

Cc1ncsc1-c1ccc([C@H](C)NC(=O)[C@@H]2C[C@@H](O)CN2C(=O)[C@@H](NC(=O)CCCCCNC(=O)c2ccc(N3CCN(CCN(C)CC4(C)CCC(c5ccc(Cl)cc5)=C(CN5CCN(c6ccc(C(=O)NS(=O)(=O)c7ccc(N[C@H](CCN8CCOCC8)CSc8ccccc8)c(S(=O)(=O)C(F)(F)F)c7)cc6)CC5)C4)CC3)cc2)C(C)(C)C)cc1 (some centres unmarked) [Compound 15]
IC50 [1]: 20 to 100 nM | IC50 [2]: 20 to 100 nM
